The subject of test [1] is avian H7N9 influenza virus. As to conditions: mice; cited from earlier work.
The test system of test [2] is divergent influenza A strains and influenza B strain. As to conditions: cited from earlier work.
Test [3] deals with SARS-CoV-2, USA-WA1/2020 strain. In kind it is cell-based. As to conditions: nasal spray 90%, ethanol 67.5%.

Each structure is given as a SMILES string. Where a name gives a salt, the structure may show the parent alone. Marks after values point to notes of the source that are not given here.

For `CN(C)CCC(c1ccc(Cl)cc1)c1ccccn1` (stereo not shown) [Chlorpheniramine, chlorpheniramine maleate], in test [1], the “protection from fatal challenge” value is “protects mice from fatal challenge”. Also, the “inhibitory activity against influenza” value in test [2] was “potent inhibitory activity”.
For the compound `CCO` [Ethanol], the “Virus Titer” value in test [3] (after 25 minutes incubation with virus at 22±2° C., average of three replicates ± standard deviation) is on record as 1.0 ± 0.6 Log10 CCID50/mL. In addition, in test [3] (reduction of virus compared with virus control (water), 25 minutes incubation at 22±2° C.), the “Log Reduction Value” is given as 3.2***.
